Results reported in US7109043B2, “Fluorescent probe for magnesium ion determination” (Japan Science and Technology Corporation, priority 2000, dated 2006).
Entries after “also recorded” stand apart in the source; their conditions may differ. Like-named read-outs stand apart in the source and are kept apart here.

Experiments:
[1] = Binding constant to calcium ion by fluorescence titration (Benesi-Hildebrand plot); conditions: probe 10 μM in HEPES 10.0 mM, KCl 120.0 mM, NaCl 20.0 mM, EGTA 2.0 mM, pH 7.20; excitation 448 nm, fluorescence 505 nm
Description: (§1) Selectivities to magnesium ion (i.e., the ratio of binding constant to magnesium ion to the binding constant to calcium ion) of KMG-20 synthesized in Example 1 and KMG-27 synthesized in Example 4 were measured. More particularly, this measurement was carried out as follows:
(§2) The fluorescent indicator was dissolved in a solvent (HEPES 10.0 mM, KCl 120.0 mM, NaCl 20.0 mM, EGTA 2.0 mM, pH 7.20) to a concentration of 10 μM. To this solution, a metal salt solution (MgCl2, CaCl2) in the above-described solvent was added to a concentration of 0 to 500 mM, and fluorescence spectrum was measured.
(§3) The conditions of the fluorophotometer (Hitachi F4500) were as follows: excitation wavelength: 448 nm, slit width: excitation side: 2.5 nm, fluorescence side 2.5 nm, photomultiplier voltage: 700V, scanning rate: 240 nm/min.
The fluorescence intensities at the maximum fluorescence wavelength (505 nm) when the concentration of the metal ion was changed were measured, and the binding constants to Mg^2+ and Ca^2+ were calculated by using Benesi-Hildebrand plot method (J. Am. Chem. Soc. 71, 2703 (1949)). […]

[2] = tested on: PC-12 cells; assay: Measurement of magnesium ions in cells using fluorescent probe (No. 2), fluorescence microscopy; format: cell-based, rat; conditions: for Change in fluorescence intensity after addition of FCCP: 5.0 μM FCCP (raises free magnesium ion level); for Staining / dispersion of the probe in cells: excitation 440 nm, detection 500–530 nm
Description: Behavior of magnesium ions in cells were measured using the fluorescent probe synthesized in Example 4.
Since this fluorescent probe KMG-20 has an acetoxymethyl group, it has a high lipid solubility and is easy to transfer from the culture medium to the cell membrane. In the vicinity of the cell membrane, the acetoxymethyl group is removed by an ester hydrolysis enzyme in the cell and becomes again a water-soluble compound having a carboxyl group, so that it is diffused into the cytoplasm.
A solution of the fluorescent probe in DMSO (1.0 ml) was added to Hanks-HEPES buffer so as to attain a final concentration of 10.0 μM, and the mixture was subjected to ultrasonication. The culture medium in which PC-12 cells (cloned nerve cells isolated from rat adrenal medulla chrome-philic cytoma) had been cultured at 37° C. on a petri dish was replaced with the fluorescent probe solution, and the cells were incubated at 37° C. for 30 minutes. […] The excitation wavelength was 440 nm and the detection wavelength was 500–530 nm. For comparison, the cells before the treatment with the fluorescence probe were also observed with the fluorescence microscope.
(§4) To clarify the behavior of free magnesium ions in the cells, 5.0 μM carbonylcyanoid p-(trifluoromethoxy)phenylhydrazone (FCCP) was added. As a result, the entire cell was brightened. The change in the fluorescence intensity with time after the addition of FCCP was observed. […] It is known that magnesium ion usually binds to an oxygen atom in the phosphoric acid ester moiety of a phosphorylated substrate such as ATP, ADP, phosphorylated saccharide, nucleic acid or the like to neutralize the electric charge thereof, and serves as an acid catalyst, and that enzymes whose corresponding substrates are phosphoric acid ester compounds require magnesium ion as a co-factor. Since FCCP serves as a respiration inhibitor of mitochondria in the cells, the ATP activity in the cells is decreased and so the free magnesium ion level is increased, it is thought that the fluorescent probe formed a complex with magnesium ion, thereby increasing the fluorescence intensity.
(§5) Further, 10 μM acetylcholine was added to the cells so as to compulsively increase the calcium level in the cells.

[3] = Binding constant to magnesium ion by fluorescence titration (Benesi-Hildebrand plot); conditions: for KMg (binding constant to Mg^2+): probe 10 μM in HEPES 10.0 mM, KCl 120.0 mM, NaCl 20.0 mM, EGTA 2.0 mM, pH 7.20, excitation 448 nm, fluorescence 505 nm; for KMg/KCa (selectivity to magnesium ion): ratio of binding constant to magnesium ion to binding constant to calcium ion
Description: as §1, §2, §3
The fluorescence intensities at the maximum fluorescence wavelength (505 nm) when the concentration of the metal ion was changed were measured, and the binding constants to Mg^2+ and Ca^2+ were calculated by using Benesi-Hildebrand plot method (J. Am. Chem. Soc. 71, 2703 (1949)).
For comparison, the binding constants of known magnesium probes commercially available from Molecular Probes, that is, mag-fura-2 (Proc. Natl. Acad. Sci. USA, 86, 2981 (1989)), mag-indo-1(J. Physiol, 475, 319 (1994)), mag-fura-5 (J. Physiol, 475, 319 (1994)) and Magnesium Green (J. Biol. Chem. 270, 18975 (1995)) are also shown in Table 1.

[4] = known commercial magnesium probes, literature values for comparison; cited from earlier work
[5] = known commercial magnesium probes, literature values for comparison; cited from earlier work; remark: listed apart in the source
[6] = tested on: bovine vascular endothelial cells; assay: Measurement of magnesium ions in cells using fluorescent probe (No. 1), fluorescence microscopy; format: cell-based
Description: Magnesium ions in cells were measured using the fluorescent probe KMG-20 synthesized in Example 1. Since the fluorescent probe KMG-20 has an acetoxymethyl group, it has a high lipid solubility and is easy to transfer from the culture medium to the cell membrane. In the vicinity of the cell membrane, the acetoxymethyl group is removed by an ester hydrolysis enzyme in the cell and becomes again a water-soluble compound having a carboxyl group, so that it is diffused into the cytoplasm. Upon forming a complex with a magnesium ion, the fluorescence of KMG-20 is increased.
A solution of the fluorescent probe KMG-20 in DMSO (1.0 ml) was added to Hanks-HEPES buffer so as to attain a final concentration of 10.0 μM, and the mixture was subjected to ultrasonication. The culture medium in which bovine vascular endothelial cells had been cultured at 37° C. on a petri dish was replaced with the above-described KMG-20 solution, and the cells were incubated at 37° C. for 30 minutes. […] The excitation wavelength was 440 nm and the detection wavelength was 500–530 nm. For comparison, the cells before the treatment with the fluorescence probe were also observed with the fluorescence microscope.
as §4, with “5” for “5.0”, “KMG-20” for “the fluorescent probe”
as §5

[7] = 10 μM acetylcholine (increases calcium level in the cells)
[8] = 10.0 μM probe, 37° C. 30 minutes, fluorescence microscope

Row | SMILES | KCa (binding constant to Ca^2+) [1] [M⁻¹] | KMg (binding constant to Mg^2+) [3] [M⁻¹] | KMg/KCa (selectivity to magnesium ion) [3] | KCa (binding constant to Ca^2+) [4] | KMg (binding constant to Mg^2+) [5] [M⁻¹] | other results
1 | COC(=O)c1cc2cc3c4c(c2oc1=O)C(C)(C)CCN4CCC3(C)C [KMG-27, methyl-13-aza-10,10,16,16-tetramethyl-3-oxa-4-oxo-tetracyclo[7,7,1,0<2,7>.O<13,17>]heptadeca-1(17),2(7),5,8-tetraene-5-carboxylate] | 33.0 | 102.0 | 3.09 |  |  | Change in fluorescence intensity after addition of FCCP [2]: increase in the fluorescent intensity was observed; Change in fluorescence intensity after addition of FCCP ([2]; listed as Example 4): fluorescence intensity was increased during 1 minute from the addition of FCCP; Change in fluorescence intensity after addition of acetylcholine [2, 7]: increase of the fluorescence intensity was not observed; Staining / dispersion of the probe in cells ([2]; 10.0 μM probe, 37° C. 30 minutes): uniformly dispersed in the cells; Staining / dispersion of the probe in cells ([2]; 10.0 μM probe, 37° C. 30 minutes, listed as Example 4): uniformly dispersed and stained the cells; Location of the probe in the cell [2, 8]: located in the vicinity of the nucleus
2 | O=C(O)COc1cc2cc(-c3ncc(C(=O)O)o3)oc2cc1N(CC(=O)O)CC(=O)O [mag-fura-2] |  |  | 0.013 | 40,000 M^−1 | 526.3 | 
3 | O=C([O-])COc1cc(NC(=O)c2ccc3c(c2)C(=O)OC32c3cc(Cl)c([O-])cc3Oc3cc([O-])c(Cl)cc32)ccc1N(CC(=O)[O-])CC(=O)[O-].[K+].[K+].[K+].[K+].[K+] [Magnesium Green] |  |  | 0.003 | 166,660 M^−1 | 500.0 | 
4 | CC(=O)OCOC(=O)c1cc2cc3c4c(c2oc1=O)CCCN4CCC3 [KMG-20, (13-aza-3-oxa-4-oxotetracyclo[7.7.1.0<2,7>.0<13,17>]heptadeca-1(17),2(7),5,8-tetraene-5-ylcarbonyloxy)methyl acetate] | 33.3 | 100.0 | 3.0 |  |  | Change in fluorescence intensity after addition of FCCP ([6]; 5 μM FCCP (raises free magnesium ion level)): fluorescence intensity was increased during 1 minute from the addition of FCCP; Change in fluorescence intensity after addition of acetylcholine [6, 7]: increase of the fluorescence intensity was not observed; Staining / dispersion of the probe in cells ([6]; 10.0 μM probe, 37° C. 30 minutes, excitation 440 nm, detection 500–530 nm): uniformly dispersed and stained the cells; also recorded: uniformly dispersed in the cytoplasm; Location of the probe in the cell [6, 8]: located in the vicinity of the nucleus
5 | O=C(O)COc1cc(-c2cc3ccc(C(=O)O)cc3[nH]2)ccc1N(CC(=O)O)CC(=O)O [mag-indo-1] |  |  | 0.013 | 28,570 M^−1 | 370.4 | 
